Experimental data taken from patent US10377753B2, “Substituted 4-azaindoles and their use as GluN2B receptor modulators” (Janssen Pharmaceutica NV, priority 2015, dated 2019).

Each molecule was assayed against cloned human NR1/NR2B ion channels (Homo sapiens (Human), UniProt Q05586+Q13224) (assay: HNR2BC: effects of test articles on cloned human NR1/NR2B ion channels expressed in mammalian cells (FLIPR calcium flux)). Settings: cloned human NR1/NR2B ion channels, Table 5.
Assay type: cell-based
Method in brief: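 Compounds were added to dye-loaded cells for 5 min with fluorescence monitored for agonism, followed by co-agonists (glutamate ~EC80, glycine 10 μM saturating) for 5 min. Cells stably expressed inducible human NR1/NR2B, and the buffer was pH 7.4. The FLIPR Ca2+ flux signal was normalized against control wells.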

Sequence of cloned human NR1/NR2B ion channels (Q13224 27-1484, other chains not shown): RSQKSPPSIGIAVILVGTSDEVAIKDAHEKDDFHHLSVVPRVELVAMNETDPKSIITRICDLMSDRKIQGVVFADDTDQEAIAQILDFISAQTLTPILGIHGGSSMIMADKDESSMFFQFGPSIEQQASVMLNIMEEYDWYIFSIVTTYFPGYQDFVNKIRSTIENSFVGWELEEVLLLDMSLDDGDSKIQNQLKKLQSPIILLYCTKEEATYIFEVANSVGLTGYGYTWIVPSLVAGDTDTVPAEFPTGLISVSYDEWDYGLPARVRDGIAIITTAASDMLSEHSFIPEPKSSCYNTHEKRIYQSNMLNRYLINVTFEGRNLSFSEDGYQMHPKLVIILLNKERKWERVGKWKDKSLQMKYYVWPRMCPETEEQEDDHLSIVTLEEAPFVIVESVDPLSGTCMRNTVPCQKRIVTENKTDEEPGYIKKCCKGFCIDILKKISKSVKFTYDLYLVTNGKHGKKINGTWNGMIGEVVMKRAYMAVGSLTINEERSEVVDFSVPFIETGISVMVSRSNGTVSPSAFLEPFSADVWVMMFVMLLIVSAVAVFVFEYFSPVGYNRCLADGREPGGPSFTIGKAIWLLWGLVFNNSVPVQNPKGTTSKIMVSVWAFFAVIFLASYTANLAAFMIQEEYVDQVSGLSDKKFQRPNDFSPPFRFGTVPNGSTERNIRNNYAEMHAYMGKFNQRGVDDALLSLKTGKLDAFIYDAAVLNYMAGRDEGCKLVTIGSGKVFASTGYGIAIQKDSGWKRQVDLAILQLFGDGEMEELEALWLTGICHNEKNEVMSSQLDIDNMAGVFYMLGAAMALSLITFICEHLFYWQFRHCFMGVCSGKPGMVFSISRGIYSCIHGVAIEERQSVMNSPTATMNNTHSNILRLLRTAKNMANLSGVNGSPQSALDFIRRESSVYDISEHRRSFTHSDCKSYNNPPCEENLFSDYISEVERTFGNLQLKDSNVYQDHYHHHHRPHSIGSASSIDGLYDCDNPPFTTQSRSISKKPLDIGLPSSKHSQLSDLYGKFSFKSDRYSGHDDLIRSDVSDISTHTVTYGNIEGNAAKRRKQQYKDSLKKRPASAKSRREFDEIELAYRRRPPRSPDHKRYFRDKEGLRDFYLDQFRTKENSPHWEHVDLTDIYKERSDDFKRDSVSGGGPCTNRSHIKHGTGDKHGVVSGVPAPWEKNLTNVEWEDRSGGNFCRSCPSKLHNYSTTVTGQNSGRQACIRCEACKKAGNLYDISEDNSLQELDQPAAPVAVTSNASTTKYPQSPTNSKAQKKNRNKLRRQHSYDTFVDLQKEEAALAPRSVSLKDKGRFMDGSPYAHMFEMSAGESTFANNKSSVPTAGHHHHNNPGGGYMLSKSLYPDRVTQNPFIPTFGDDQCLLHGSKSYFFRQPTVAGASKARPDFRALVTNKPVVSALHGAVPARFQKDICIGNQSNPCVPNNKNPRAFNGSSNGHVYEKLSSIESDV

With `Cc1cccc(-c2cnc3ccn(CC(=O)N4CC(F)C4)c3c2)c1F` [Example 454, 1-(3-Fluoroazetidin-1-yl)-2-[6-(2-fluoro-3-methyl-phenyl)pyrrolo[3,2-b]pyridin-1-yl]ethanone] as the molecule, how does the IC50 read?
Its IC50 is 25.1 nM.

`O=C(Cn1ccc2ncc(-c3ccc(F)c(F)c3F)cc21)N1CC(F)C1` [Example 455, 1-(3-Fluoroazetidin-1-yl)-2-[6-(2,3,4-trifluorophenyl)pyrrolo[3,2-b]pyridin-1-yl]ethanone] was tested. Which IC50 did it give?
The IC50 was 31.6 nM.

For `O=C(Cn1ccc2ncc(-c3ccc(F)c(Cl)c3)cc21)N1CCC1` [Example 456, 1-(Azetidin-1-yl)-2-[6-(3-chloro-4-fluoro-phenyl)pyrrolo[3,2-b]pyridin-1-yl]ethanone], which IC50 is on record?
Its IC50 is 63.1 nM.

How did the IC50 turn out when `O=C(Cn1ccc2ncc(-c3ccccc3F)cc21)N1CC(F)C1` [Example 457, 1-(3-Fluoroazetidin-1-yl)-2-[6-(2-fluorophenyl)pyrrolo[3,2-b]pyridin-1-yl]ethanone] was run?
Its IC50 is 15.8 nM.

Which IC50 does the source give for `O=C(Cn1ccc2ncc(-c3cccc(C(F)F)c3)cc21)N1CC(F)C1` [Example 458, 2-[6-[3-(Difluoromethyl)phenyl]pyrrolo[3,2-b]pyridin-1-yl]-1-(3-fluoroazetidin-1-yl)ethanone] here?
The IC50 was 398 nM.

For `CCN(C)C(=O)Cn1ccc2ncc(-c3cccc(C)c3)cc21` [Example 459, N-Ethyl-N-methyl-2-[6-(m-tolyl)pyrrolo[3,2-b]pyridin-1-yl]acetamide], which IC50 is on record?
Its IC50 is 39.8 nM.

`Cc1c(F)ccc(-c2cnc3ccn(CC(=O)N4CC(F)C4)c3c2)c1F` [Example 460, 2-[6-(2,4-Difluoro-3-methyl-phenyl)pyrrolo[3,2-b]pyridin-1-yl]-1-(3-fluoroazetidin-1-yl)ethanone] was tested. Which IC50 did it give?
The IC50 was 63.1 nM.

Which IC50 does the source give for `CCN(C)C(=O)Cn1ccc2ncc(-c3ccc(F)c(F)c3)cc21` [Example 461, 2-[6-(3,4-Difluorophenyl)pyrrolo[3,2-b]pyridin-1-yl]-N-ethyl-N-methyl-acetamide] here?
The IC50 was 31.6 nM.

Which IC50 does the source give for `CCN(C)C(=O)Cn1ccc2ncc(-c3cc(F)c(F)c(F)c3)cc21` [Example 462, N-Ethyl-N-methyl-2-[6-(3,4,5-trifluorophenyl)pyrrolo[3,2-b]pyridin-1-yl]acetamide] here?
Its IC50 is 126 nM.

How did the IC50 turn out when `O=C(Cn1ccc2ncc(-c3cccc(Cl)c3)cc21)N1CCC1` [Example 463, 1-(Azetidin-1-yl)-2-[6-(3-chlorophenyl)pyrrolo[3,2-b]pyridin-1-yl]ethanone] was run?
Its IC50 is 100 nM.

`CCN(C)C(=O)Cn1ccc2ncc(-c3cccc(C(F)(F)F)c3F)cc21` [Example 464, N-Ethyl-2-[6-[2-fluoro-3-(trifluoromethyl)phenyl]pyrrolo[3,2-b]pyridin-1-yl]-N-methyl-acetamide] was tested. Which IC50 did it give?
The IC50 was 12.6 nM.

`O=C(Cn1ccc2ncc(-c3cccc(Cl)c3)cc21)N1CC(F)C1` [Example 465, 2-[6-(3-Chlorophenyl)pyrrolo[3,2-b]pyridin-1-yl]-1-(3-fluoroazetidin-1-yl)ethanone] was tested. Which IC50 did it give?
Its IC50 is 79.4 nM.

With `O=C(Cn1ccc2ncc(-c3cccc(Cl)c3F)cc21)N1CC(F)C1` [Example 466, 2-[6-(3-Chloro-2-fluoro-phenyl)pyrrolo[3,2-b]pyridin-1-yl]-1-(3-fluoroazetidin-1-yl)ethanone] as the molecule, how does the IC50 read?
Its IC50 is 20 nM.

For `O=C(Cn1ccc2ncc(-c3ccc(F)c(Cl)c3)cc21)N1CC(F)C1` [Example 467, 2-[6-(3-Chloro-4-fluoro-phenyl)pyrrolo[3,2-b]pyridin-1-yl]-1-(3-fluoroazetidin-1-yl)ethanone], which IC50 is on record?
Its IC50 is 63.1 nM.

How did the IC50 turn out when `CCN(C)C(=O)Cn1ccc2ncc(-c3ccc(F)c(C)c3F)cc21` [Example 469, 2-[6-(2,4-Difluoro-3-methyl-phenyl)pyrrolo[3,2-b]pyridin-1-yl]-N-ethyl-N-methyl-acetamide] was run?
Its IC50 is 15.8 nM.

For `CCN(C)C(=O)Cn1ccc2ncc(-c3cccc(C(F)(F)F)c3)cc21` [Example 470, N-Ethyl-N-methyl-2-[6-[3-(trifluoromethyl)phenyl]pyrrolo[3,2-b]pyridin-1-yl]acetamide], which IC50 is on record?
Its IC50 is 200 nM.

Which IC50 does the source give for `O=C(Cn1cc(F)c2ncc(-c3ccccc3F)cc21)N1CCC1` [Example 471, 1-(Azetidin-1-yl)-2-[3-fluoro-6-(2-fluorophenyl)pyrrolo[3,2-b]pyridin-1-yl]ethanone] here?
The IC50 was 100 nM.

With `Cc1cccc(-c2cnc3c(F)cn(CC(=O)N4CCC4)c3c2)c1F` [Example 472, 1-(Azetidin-1-yl)-2-[3-fluoro-6-(2-fluoro-3-methyl-phenyl)pyrrolo[3,2-b]pyridin-1-yl]ethanone] as the molecule, how does the IC50 read?
The IC50 was 200 nM.

With `Cc1cccc(-c2cnc3c(F)cn(CC(=O)N4CCC4)c3c2)c1` [Example 473, 1-(Azetidin-1-yl)-2-[3-fluoro-6-(m-tolyl)pyrrolo[3,2-b]pyridin-1-yl]ethanone] as the molecule, how does the IC50 read?
Its IC50 is 31.6 nM.

For `O=C(Cn1cc(F)c2ncc(-c3cc(F)cc(F)c3)cc21)N1CCC1` [Example 474, 1-(Azetidin-1-yl)-2-[6-(3,5-difluorophenyl)-3-fluoro-pyrrolo[3,2-b]pyridin-1-yl]ethanone], which IC50 is on record?
Its IC50 is 31.6 nM.

Which IC50 does the source give for `O=C(Cn1cc(F)c2ncc(-c3cccc(C(F)(F)F)c3)cc21)N1CCC1` [Example 475, 1-(Azetidin-1-yl)-2-[3-fluoro-6-[3-(trifluoromethyl)phenyl]pyrrolo[3,2-b]pyridin-1-yl]ethanone] here?
The IC50 was 25.1 nM.

With `O=C(Cn1cc(F)c2ncc(-c3cccc(C(F)(F)F)c3F)cc21)N1CCC1` [Example 476, 1-(Azetidin-1-yl)-2-[3-fluoro-6-[2-fluoro-3-(trifluoromethyl)phenyl]pyrrolo[3,2-b]pyridin-1-yl]ethanone] as the molecule, how does the IC50 read?
The IC50 was 50.1 nM.

`O=C(Cn1cc(F)c2ncc(-c3ccc(F)c(F)c3F)cc21)N1CCC1` [Example 477, 1-(Azetidin-1-yl)-2-[3-fluoro-6-(2,3,4-trifluorophenyl)pyrrolo[3,2-b]pyridin-1-yl]ethanone] was tested. Which IC50 did it give?
Its IC50 is 50.1 nM.

Which IC50 does the source give for `O=C(Cn1cc(F)c2ncc(-c3cccc(Cl)c3)cc21)N1CCC1` [Example 478, 1-(Azetidin-1-yl)-2-[6-(3-chlorophenyl)-3-fluoro-pyrrolo[3,2-b]pyridin-1-yl]ethanone] here?
Its IC50 is 39.8 nM.

How did the IC50 turn out when `O=C(Cn1cc(F)c2ncc(-c3cccc(Cl)c3F)cc21)N1CCC1` [Example 479, 1-(Azetidin-1-yl)-2-[6-(3-chloro-2-fluoro-phenyl)-3-fluoro-pyrrolo[3,2-b]pyridin-1-yl]ethanone] was run?
Its IC50 is 25.1 nM.

For `Cc1c(F)ccc(-c2cnc3c(F)cn(CC(=O)N4CCC4)c3c2)c1F` [Example 480, 1-(Azetidin-1-yl)-2-[6-(2,4-difluoro-3-methyl-phenyl)-3-fluoro-pyrrolo[3,2-b]pyridin-1-yl]ethanone], which IC50 is on record?
The IC50 was 39.8 nM.

How did the IC50 turn out when `O=C(Cn1cc(F)c2ncc(-c3ccc(F)c(Cl)c3)cc21)N1CCC1` [Example 481, 1-(Azetidin-1-yl)-2-[6-(3-chloro-4-fluoro-phenyl)-3-fluoro-pyrrolo[3,2-b]pyridin-1-yl]ethanone] was run?
The IC50 was 25.1 nM.

How did the IC50 turn out when `O=C(Cn1cc(F)c2ncc(-c3ccccc3)cc21)N1CC(F)C1` [Example 482, 1-(3-Fluoroazetidin-1-yl)-2-(3-fluoro-6-phenyl-pyrrolo[3,2-b]pyridin-1-yl)ethanone] was run?
The IC50 was 15.8 nM.

Which IC50 does the source give for `Cc1cccc(-c2cnc3c(F)cn(CC(=O)N4CC(F)C4)c3c2)c1F` [Example 483, 1-(3-Fluoroazetidin-1-yl)-2-[3-fluoro-6-(2-fluoro-3-methyl-phenyl)pyrrolo[3,2-b]pyridin-1-yl]ethanone] here?
The IC50 was 63.1 nM.

For `O=C(Cn1cc(F)c2ncc(-c3cccc(C(F)(F)F)c3)cc21)N1CC(F)C1` [Example 484, 1-(3-Fluoroazetidin-1-yl)-2-[3-fluoro-6-[3-(trifluoromethyl)phenyl]pyrrolo[3,2-b]pyridin-1-yl]ethanone], which IC50 is on record?
The IC50 was 12.6 nM.

For `O=C(Cn1cc(F)c2ncc(-c3cccc(C(F)(F)F)c3F)cc21)N1CC(F)C1` [Example 485, 1-(3-Fluoroazetidin-1-yl)-2-[3-fluoro-6-[2-fluoro-3-(trifluoromethyl)phenyl]pyrrolo[3,2-b]pyridin-1-yl]ethanone], which IC50 is on record?
Its IC50 is 39.8 nM.

For `O=C(Cn1cc(F)c2ncc(-c3ccc(F)c(F)c3F)cc21)N1CC(F)C1` [Example 486, 1-(3-Fluoroazetidin-1-yl)-2-[3-fluoro-6-(2,3,4-trifluorophenyl)pyrrolo[3,2-b]pyridin-1-yl]ethanone], which IC50 is on record?
Its IC50 is 25.1 nM.

With `O=C(Cn1cc(F)c2ncc(-c3cc(F)cc(F)c3)cc21)N1CC(F)C1` [Example 487, 2-[6-(3,5-Difluorophenyl)-3-fluoro-pyrrolo[3,2-b]pyridin-1-yl]-1-(3-fluoroazetidin-1-yl)ethanone] as the molecule, how does the IC50 read?
The IC50 was 50.1 nM.

Which IC50 does the source give for `Cc1c(F)ccc(-c2cnc3c(F)cn(CC(=O)N4CC(F)C4)c3c2)c1F` [Example 488, 2-[6-(2,4-Difluoro-3-methyl-phenyl)-3-fluoro-pyrrolo[3,2-b]pyridin-1-yl]-1-(3-fluoroazetidin-1-yl)ethanone] here?
The IC50 was 15.8 nM.

For `O=C(Cn1cc(F)c2ncc(-c3cccc(Cl)c3)cc21)N1CC(F)C1` [Example 489, 2-[6-(3-Chlorophenyl)-3-fluoro-pyrrolo[3,2-b]pyridin-1-yl]-1-(3-fluoroazetidin-1-yl)ethanone], which pIC50 is on record?
The pIC50 was 8.0.

For `O=C(Cn1cc(F)c2ncc(-c3cccc(Cl)c3F)cc21)N1CC(F)C1` [Example 490, 2-[6-(3-Chloro-2-fluoro-phenyl)-3-fluoro-pyrrolo[3,2-b]pyridin-1-yl]-1-(3-fluoroazetidin-1-yl)ethanone], which IC50 is on record?
The IC50 was 20 nM.

`CCc1cccc(-c2cnc3c(F)cn(CC(=O)N4CC(F)C4)c3c2)c1` [Example 491, 2-[6-(3-Ethylphenyl)-3-fluoro-pyrrolo[3,2-b]pyridin-1-yl]-1-(3-fluoroazetidin-1-yl)ethanone] was tested. Which IC50 did it give?
Its IC50 is 15.8 nM.

For `O=C(Cn1cc(F)c2ncc(-c3cccc(F)c3)cc21)N1CC(F)C1` [Example 492, 1-(3-Fluoroazetidin-1-yl)-2-[3-fluoro-6-(3-fluorophenyl)pyrrolo[3,2-b]pyridin-1-yl]ethanone], which IC50 is on record?
The IC50 was 25.1 nM.

With `CN(C)C(=O)Cn1cc(F)c2ncc(-c3ccccc3F)cc21` [Example 493, 2-[3-Fluoro-6-(2-fluorophenyl)pyrrolo[3,2-b]pyridin-1-yl]-N,N-dimethyl-acetamide] as the molecule, how does the IC50 read?
Its IC50 is 25.1 nM.
